Measured values from US5670506A, “Halogen, isothiocyanate or azide substituted xanthines” (Cell Therapeutics, Inc., priority 1993, dated 1997).

How the values were obtained:
Assay type in all cases: cell-based
murine splenocytes = test: inhibition of murine splenocyte proliferation stimulated by anti-mu and IL-4; details: FIG. 5; anti-mu (10 μg/ml) and IL-4 (12.5 ng/ml)
Procedure: Drug was added to the cells at the doses indicated two hours prior to activation with anti-mu and IL-4. This in vitro assay is a model for immune suppression and treatment or prevention of autoimmune diseases. […] Background counts were less than 200 cpm.
There are a series of in vitro assays that can be used to measure immunosuppressive activity of a particular compound. These assays are a predictive model for treatment or prevention of autoimmune diseases, such as diabetes, lupus, arthritis, and the like. A first assay measures immunosuppressive activity of a drug at the B cell level. Spleens from adult mice contain immature B cells that express surface IgM. Cross-linking the surface IgM with an anti-mu antibody results in B cell proliferation. Additionally, this activation results in an increased expression of interleukin-4 receptors(IL-4R) on the surface of such cells. IL-4 acts as a growth factor for B cells and will increase the amount of proliferation induced by anti-mu. In the first assay, a mixture of anti-mu and murine IL-4 is added to murine splenocytes to cause their proliferation. Mice spleens are obtained from adult mice and a single cell suspension is prepared in RPMI 1640 medium supplemented with 10% FCS. […] Proliferation is determined on the third day with a pulse of tritiated thymidine. […]

[1] = system: PBMC (peripheral blood mononuclear cells); test: two-way mixed lymphocyte reaction (MLR), immune suppression; details: Homo sapiens, 144 h, allogeneic stimulation of PBMC, 6 days
Description: Various in vitro assays can be used to measure effects of the inventive compounds to module immune activity and have antitumor activity using a variety of cellular types. For example, a mixed lymphocyte reaction (MLR) provides a valuable screening tool to determine biological activity of each inventive compound. In the MLR, PBMCs (peripheral blood mononuclear cells) are obtained by drawing whole blood from healthy volunteers in a heparinized container and diluted with an equal volume of hanks balanced salt solution (HBSS). This mixture is layered on a sucrose density gradient, such as a Ficoll-Hypaque® gradient (specific gravity 1.08), and centrifuged at 1000× g for 25 minutes at room temperature or cooler. PBMC are obtained from a band at a plasma-Ficoll interface, separated and washed at least twice in a saline solution, such as HBSS. Contaminating red cells are lysed, such as by ACK lysis for 10 rain at 37° C., and the PBMCs are washed twice in HBSS. The pellet of purified PBMCs is resuspended in complete medium, such as RPMI 1640 plus 20% human inactivated serum. Proliferative response of PBMC to allogeneic stimulation is determined in a two-way MLR performed in a 96-well microtiter plate. […] At the conclusion of the incubation tritiated thymidine is added (for example, 1 μCi/well of 40 to 60 Ci/mmole) and proliferation determined by liquid scintillation counting. […]

human stromal cells = test: inhibition of proliferation of human stromal cells stimulated with PDGF
Procedure: (§1) This assay is a model for restenosis and treatment of atherosclerosis and coronary artery disease. Stromal cells were starved in serum-free media for one day and then stimulated with 50 ng/ml PDGF-BB. The drags were added at the indicated concentrations one hour prior to PDGF stimulation. Tritiated thymidine was added for one day at the time of PDGF stimulation and the cells were harvested and counted by liquid scintillation counting 24 hrs later. Background counts (i.e., starved cells) were approximately 1% of control levels.
Another assay for measuring activity of the inventive compounds involves determining PDGF (platelet derived growth factor) proliferative response using human-derived stromal cells. Human stromal cells are plated (e.g., about 2000 cells per well) in defined media (e.g., 69% McCoy's, 12.5% fetal calf serum, 12.5% horse serum, 1% antibiotics, 1% glutamine, 1% vitamin supplement, 0.8% essential amino acids, 1% sodium pyruvate, 1% sodium bicarbonate, 0.4% non-essential amino acids and 0.36% hydrocortisone). Two to three days later, the stromal cells are starved in serum-free media. Twenty four hours later, the cells are treated with a stimulating agent, such as PDGF-AA, PDGF-BB or basic FGF (fibroblast growth factor) with or without IL-1α or TNF, and tritiated thymidine. Cell proliferation is determined by liquid scintillation counting.
as §1, with “drugs” for “drags”

Cn1cnc2c1c(=O)n(CCCCC(=O)CCl)c(=O)n2C [CT1595, 1-(6-chloro-5-oxohexyl)-3,7-dimethylxanthine]
inhibition of splenocyte proliferation (murine splenocytes): most potent inhibitors of splenocyte proliferation in a dose-response manner | IC50 [1]: < 10 µM | inhibition of human stromal cell proliferation (human stromal cells; FIG. 7, 50 ng/ml PDGF-BB, in words): strongly inhibit proliferation | IC50 (human stromal cells; Homo sapiens, read-out: IC50, inhibition of human stromal cell proliferation): < 10 µM
